The results in this text go back to ChEMBL document CHEMBL1201862, “PubChem BioAssay data set” (2004).

Experiment [1] deals with T1, Tyrosine-protein phosphatase non-receptor type 7 (Homo sapiens, UniProt P35236).
T1 sequence (P35236 whole entry): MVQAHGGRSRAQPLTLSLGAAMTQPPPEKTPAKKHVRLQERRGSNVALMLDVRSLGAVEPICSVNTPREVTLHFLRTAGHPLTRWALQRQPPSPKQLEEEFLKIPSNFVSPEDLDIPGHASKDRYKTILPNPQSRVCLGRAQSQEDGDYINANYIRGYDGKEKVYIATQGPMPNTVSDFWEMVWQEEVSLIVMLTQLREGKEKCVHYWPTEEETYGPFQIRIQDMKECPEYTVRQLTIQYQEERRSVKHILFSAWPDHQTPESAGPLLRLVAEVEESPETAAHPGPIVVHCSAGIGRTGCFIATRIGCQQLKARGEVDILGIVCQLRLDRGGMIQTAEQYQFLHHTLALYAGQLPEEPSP
Briefly: SAR analysis of chemical inhibitors of HePTP using a Fluorescent assay - Set 2. [Related pubchem assays (depositor defined):AID1059, AID1077, AID1661, AID2085, AID521]. It is filed as functional.

For experiment [2], the target named is T2, Dual specificity protein phosphatase 3 (Homo sapiens, UniProt P51452). Kind of experiment: SAR VHR1 Fluorescent Assay for In Vitro dose response studies Set 2. [Related pubchem assays (depositor defined):AID1654, AID1661, AID1878]. The class given is functional.
The target in experiment [3] is Alkaline phosphatase, placental type (Homo sapiens, UniProt P05187). Kind of experiment: human placental alkaline phosphatase inhibition – biochemical, luminescence, confirmation (AID 1512). The class given is functional.
Experiment [4] addresses T3, Eukaryotic translation initiation factor 2-alpha kinase 3 (Homo sapiens, UniProt Q9NZJ5). Briefly: Counterscreen assay for PERK inhibitors: Dose response cell-based high throughput screening assay to measure inhibition of PERK at 6 hours. [Related pubchem assays: 1522, 1416 ]. The class given is functional.
The nature of experiment [5]: Luminescence Cell-Based Dose Confirmation HTS to Identify Inhibitors of Platelet Dense Granule Release. [Related pubchem assays: 1663 (Primary HTS), 1678 (Summary of Project)]. It is filed as functional.
Experiment [6] concerns the target T3, Eukaryotic translation initiation factor 2-alpha kinase 3. Briefly: Dose response cell-based high-throughput screening assay to measure PERK inhibition. [Related pubchem assays: 1416 ]. The class given is functional.
For experiment [7], the target named is Luciferin 4-monooxygenase (Photinus pyralis, UniProt P08659). Briefly: inhibition of purified Photinus pyralis luciferase – biochemical, luminescence, dose response (AID 1891).
The next experiment addresses Insulin-degrading enzyme (Homo sapiens, UniProt P14735). Kind of experiment: Dose Response: Fluorescence polarization-based cell-based high throughput dose response assay for inhibitors of insulin-degrading enzyme (IDE). [Related pubchem assays: 434962 (Primary screen (IDE inhibitors in singlicate)), 449730 (Counterscreen (Cytotoxicity in triplicate)), 435028 (Confirmation (IDE inhibitors in triplicate)), 434984 (Summary …. It is filed as functional. For orientation: Polarisation of emitted light reports the rotation of a fluorescent probe.

Experiment [8] can be described thus: Counterscreen for IDE inhibitors: Luminescence-based cell-based high throughput dose response assay to identify compounds that are cytotoxic to HEK cells. [Related pubchem assays: 434962 (Primary screen (IDE inhibitors in singlicate)), 449730 (Counterscreen (Cytotoxicity in triplicate)), 435028 (Confirmation (IDE inhibitors in triplicate)) …. It is filed as functional. Conditions: HEK293. A general note: The purpose of a counterscreen is to sort out artefacts and off-target activity.

In experiment [9] the target is T2, Dual specificity protein phosphatase 3. Kind of experiment: inhibition constants for human DUSP3 – biochemical, colorimetric, SAR follow-up (AID 2004).
Another experiment addresses Procathepsin L (Homo sapiens, UniProt P07711).
The target in another experiment is Aspartyl aminopeptidase (Plasmodium falciparum 3D7, UniProt Q8I2J3).
The target of experiment [10] is T4, Mannose-6-phosphate isomerase (Homo sapiens, UniProt P34949).
T4 sequence (P34949 whole entry): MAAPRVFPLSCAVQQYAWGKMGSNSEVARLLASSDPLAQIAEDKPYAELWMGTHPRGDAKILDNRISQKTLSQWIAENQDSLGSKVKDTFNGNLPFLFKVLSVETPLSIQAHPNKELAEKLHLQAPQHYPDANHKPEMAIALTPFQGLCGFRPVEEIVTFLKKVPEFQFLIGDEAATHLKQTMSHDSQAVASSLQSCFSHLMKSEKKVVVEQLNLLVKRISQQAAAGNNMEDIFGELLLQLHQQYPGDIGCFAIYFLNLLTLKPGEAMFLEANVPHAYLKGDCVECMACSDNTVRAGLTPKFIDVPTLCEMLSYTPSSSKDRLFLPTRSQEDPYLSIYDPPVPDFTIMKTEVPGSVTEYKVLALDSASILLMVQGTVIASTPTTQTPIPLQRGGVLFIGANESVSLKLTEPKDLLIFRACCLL
Briefly: MPI enzyme activity inhibition – biochemical, fluorescence intensity, coupled assay, primary screen (AID 1209).

In experiment [11] the target is Glucose-6-phosphate 1-dehydrogenase (Homo sapiens, UniProt P11413). Briefly: inhibition of Homo sapiens G6PD, dose series – biochemical, fluorescence, selectivity assay for P. falciparum G6PD inhibitor project, dose response (AID 504792). It is filed as functional.
The target in a further experiment is Cytochrome P450 2C9 (Homo sapiens, UniProt P11712). Conditions: Potency.
Another experiment deals with Cytochrome P450 2C19 (Homo sapiens, UniProt P33261). Kind of experiment: qHTS Assay for Inhibitors and Substrates of Cytochrome P450 2C19. [Related pubchem assays: 410 ]. The class given is ADME. Conditions: read-out: Potency. In general terms: Quantitative high-throughput screening tests each substance at several concentrations.
For another experiment, the system named is Staphylococcus aureus. Kind of experiment: Inhibitors of Bacterial Quorum Sensing Structure Activity Relationship (SAR) Analysis: Dose Response Assay. [Related pubchem assays: 700, 527 ]. It is filed as functional, organism-based.

Active and inactive are the calls of the source.

T2 sequence (P51452 whole entry): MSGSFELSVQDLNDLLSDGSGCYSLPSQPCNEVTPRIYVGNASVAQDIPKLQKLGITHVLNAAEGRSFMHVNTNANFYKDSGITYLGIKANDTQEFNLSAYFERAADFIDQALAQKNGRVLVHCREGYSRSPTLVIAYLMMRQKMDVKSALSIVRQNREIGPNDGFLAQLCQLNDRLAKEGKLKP
T3 sequence (Q9NZJ5 whole entry): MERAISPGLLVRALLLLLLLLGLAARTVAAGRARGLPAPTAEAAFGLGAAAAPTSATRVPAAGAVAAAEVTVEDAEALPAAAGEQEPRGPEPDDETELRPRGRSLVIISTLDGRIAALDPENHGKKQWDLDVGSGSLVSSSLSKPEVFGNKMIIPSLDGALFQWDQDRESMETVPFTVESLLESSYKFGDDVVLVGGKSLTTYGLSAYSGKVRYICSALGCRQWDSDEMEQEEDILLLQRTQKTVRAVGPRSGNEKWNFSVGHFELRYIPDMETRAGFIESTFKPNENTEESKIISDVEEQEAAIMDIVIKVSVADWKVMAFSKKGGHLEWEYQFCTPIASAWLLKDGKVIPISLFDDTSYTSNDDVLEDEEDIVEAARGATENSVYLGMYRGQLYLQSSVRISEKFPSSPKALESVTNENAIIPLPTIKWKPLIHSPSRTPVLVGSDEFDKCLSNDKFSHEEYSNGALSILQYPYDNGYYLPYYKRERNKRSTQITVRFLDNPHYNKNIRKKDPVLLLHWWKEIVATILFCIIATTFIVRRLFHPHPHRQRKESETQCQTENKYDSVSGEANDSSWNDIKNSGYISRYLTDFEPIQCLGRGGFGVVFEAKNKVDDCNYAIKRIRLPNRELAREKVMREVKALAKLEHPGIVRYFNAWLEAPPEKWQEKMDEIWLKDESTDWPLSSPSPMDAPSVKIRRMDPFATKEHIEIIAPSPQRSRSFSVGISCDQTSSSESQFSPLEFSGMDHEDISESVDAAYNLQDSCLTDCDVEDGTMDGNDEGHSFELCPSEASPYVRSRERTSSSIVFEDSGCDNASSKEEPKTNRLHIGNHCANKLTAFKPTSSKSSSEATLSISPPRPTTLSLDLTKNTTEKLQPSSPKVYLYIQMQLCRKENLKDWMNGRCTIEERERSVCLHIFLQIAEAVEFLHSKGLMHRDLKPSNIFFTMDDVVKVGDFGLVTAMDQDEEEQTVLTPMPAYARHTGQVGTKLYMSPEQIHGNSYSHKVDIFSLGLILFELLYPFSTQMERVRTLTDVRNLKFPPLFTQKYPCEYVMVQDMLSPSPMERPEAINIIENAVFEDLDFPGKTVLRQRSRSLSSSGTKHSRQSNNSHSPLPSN
Chain of Luciferin 4-monooxygenase (P08659 whole entry): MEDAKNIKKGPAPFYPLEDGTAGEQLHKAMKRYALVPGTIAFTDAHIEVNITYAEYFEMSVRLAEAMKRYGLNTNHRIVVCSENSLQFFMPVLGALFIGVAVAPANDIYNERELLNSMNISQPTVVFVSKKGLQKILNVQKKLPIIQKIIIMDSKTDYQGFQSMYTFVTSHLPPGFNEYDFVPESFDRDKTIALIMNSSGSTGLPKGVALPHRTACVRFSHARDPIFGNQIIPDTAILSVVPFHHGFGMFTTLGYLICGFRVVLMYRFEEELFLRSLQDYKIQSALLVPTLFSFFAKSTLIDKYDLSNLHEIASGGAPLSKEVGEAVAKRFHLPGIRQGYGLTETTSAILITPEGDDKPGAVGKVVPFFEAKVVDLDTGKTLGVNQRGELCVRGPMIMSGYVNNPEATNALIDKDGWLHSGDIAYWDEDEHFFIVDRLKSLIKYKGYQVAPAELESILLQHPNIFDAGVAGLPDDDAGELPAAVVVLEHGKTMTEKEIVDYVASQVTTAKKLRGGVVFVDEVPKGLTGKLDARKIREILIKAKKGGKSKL
Chain of Insulin-degrading enzyme (P14735 whole entry): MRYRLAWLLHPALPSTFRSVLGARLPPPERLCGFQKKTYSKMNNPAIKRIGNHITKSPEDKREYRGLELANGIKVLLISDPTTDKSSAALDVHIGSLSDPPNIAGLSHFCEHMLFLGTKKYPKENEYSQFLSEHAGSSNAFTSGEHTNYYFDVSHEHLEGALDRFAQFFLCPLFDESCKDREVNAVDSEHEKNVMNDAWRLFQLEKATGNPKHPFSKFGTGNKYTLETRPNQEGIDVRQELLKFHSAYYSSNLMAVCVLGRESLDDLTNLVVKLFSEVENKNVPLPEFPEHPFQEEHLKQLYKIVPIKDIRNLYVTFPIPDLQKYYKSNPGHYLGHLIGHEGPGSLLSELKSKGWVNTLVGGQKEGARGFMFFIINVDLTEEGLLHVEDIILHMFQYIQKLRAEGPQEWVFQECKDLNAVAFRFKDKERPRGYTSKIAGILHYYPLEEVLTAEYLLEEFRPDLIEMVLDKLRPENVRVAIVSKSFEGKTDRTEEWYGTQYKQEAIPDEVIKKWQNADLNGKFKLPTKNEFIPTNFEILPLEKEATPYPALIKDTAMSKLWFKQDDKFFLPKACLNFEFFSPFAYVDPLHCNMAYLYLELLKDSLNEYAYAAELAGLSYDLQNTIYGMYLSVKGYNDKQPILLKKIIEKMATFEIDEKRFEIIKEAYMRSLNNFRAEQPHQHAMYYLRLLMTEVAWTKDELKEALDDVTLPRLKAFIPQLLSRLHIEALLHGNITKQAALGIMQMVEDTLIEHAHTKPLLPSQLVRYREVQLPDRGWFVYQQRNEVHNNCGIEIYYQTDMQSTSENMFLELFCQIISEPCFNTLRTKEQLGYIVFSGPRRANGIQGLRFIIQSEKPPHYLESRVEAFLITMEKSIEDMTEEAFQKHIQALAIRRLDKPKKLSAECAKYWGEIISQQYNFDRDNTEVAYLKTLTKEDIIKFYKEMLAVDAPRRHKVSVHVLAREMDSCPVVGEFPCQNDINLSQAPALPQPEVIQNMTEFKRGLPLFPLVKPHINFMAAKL
Chain of Aspartyl aminopeptidase (Q8I2J3 whole entry): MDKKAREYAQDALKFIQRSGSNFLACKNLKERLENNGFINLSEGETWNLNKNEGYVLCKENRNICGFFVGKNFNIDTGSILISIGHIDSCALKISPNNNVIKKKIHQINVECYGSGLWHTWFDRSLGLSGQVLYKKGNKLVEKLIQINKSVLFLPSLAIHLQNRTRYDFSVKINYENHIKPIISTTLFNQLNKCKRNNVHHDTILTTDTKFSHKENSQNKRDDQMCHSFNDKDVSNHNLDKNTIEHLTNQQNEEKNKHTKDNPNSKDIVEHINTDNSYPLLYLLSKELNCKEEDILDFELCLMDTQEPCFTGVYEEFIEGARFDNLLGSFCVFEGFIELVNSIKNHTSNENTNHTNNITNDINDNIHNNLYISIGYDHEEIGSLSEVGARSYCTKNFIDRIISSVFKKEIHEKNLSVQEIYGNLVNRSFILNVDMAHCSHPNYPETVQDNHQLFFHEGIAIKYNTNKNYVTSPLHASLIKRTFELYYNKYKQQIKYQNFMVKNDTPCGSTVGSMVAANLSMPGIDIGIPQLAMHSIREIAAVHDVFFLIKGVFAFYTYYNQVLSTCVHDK
Chain of Glucose-6-phosphate 1-dehydrogenase (P11413 whole entry): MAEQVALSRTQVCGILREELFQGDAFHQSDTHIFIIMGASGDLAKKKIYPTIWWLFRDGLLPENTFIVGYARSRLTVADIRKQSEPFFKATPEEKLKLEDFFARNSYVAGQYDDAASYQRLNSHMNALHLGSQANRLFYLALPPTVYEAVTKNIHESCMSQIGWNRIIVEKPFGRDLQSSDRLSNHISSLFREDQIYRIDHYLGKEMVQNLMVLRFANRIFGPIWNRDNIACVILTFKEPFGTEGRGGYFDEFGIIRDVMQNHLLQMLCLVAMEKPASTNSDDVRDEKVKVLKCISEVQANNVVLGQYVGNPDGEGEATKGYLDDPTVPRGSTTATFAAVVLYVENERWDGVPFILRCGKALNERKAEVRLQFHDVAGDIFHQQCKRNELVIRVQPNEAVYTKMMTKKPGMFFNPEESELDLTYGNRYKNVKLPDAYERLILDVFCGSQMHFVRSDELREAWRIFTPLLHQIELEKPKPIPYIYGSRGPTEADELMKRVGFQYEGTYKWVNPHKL
Chain of Cytochrome P450 2C19 (P33261 whole entry): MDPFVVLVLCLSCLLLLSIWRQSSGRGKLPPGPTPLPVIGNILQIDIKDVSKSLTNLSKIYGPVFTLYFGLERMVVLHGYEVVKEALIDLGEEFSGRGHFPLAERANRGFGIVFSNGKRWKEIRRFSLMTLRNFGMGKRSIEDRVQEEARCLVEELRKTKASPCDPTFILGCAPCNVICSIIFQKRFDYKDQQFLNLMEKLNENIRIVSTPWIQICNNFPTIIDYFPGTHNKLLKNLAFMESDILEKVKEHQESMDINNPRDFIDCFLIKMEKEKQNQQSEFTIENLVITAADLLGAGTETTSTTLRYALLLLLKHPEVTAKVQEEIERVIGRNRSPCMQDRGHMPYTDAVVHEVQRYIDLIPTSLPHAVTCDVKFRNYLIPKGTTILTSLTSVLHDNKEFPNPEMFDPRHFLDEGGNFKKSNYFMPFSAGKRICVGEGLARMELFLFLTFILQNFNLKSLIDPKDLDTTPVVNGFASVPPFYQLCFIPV
Chain of Alkaline phosphatase, placental type (P05187 whole entry): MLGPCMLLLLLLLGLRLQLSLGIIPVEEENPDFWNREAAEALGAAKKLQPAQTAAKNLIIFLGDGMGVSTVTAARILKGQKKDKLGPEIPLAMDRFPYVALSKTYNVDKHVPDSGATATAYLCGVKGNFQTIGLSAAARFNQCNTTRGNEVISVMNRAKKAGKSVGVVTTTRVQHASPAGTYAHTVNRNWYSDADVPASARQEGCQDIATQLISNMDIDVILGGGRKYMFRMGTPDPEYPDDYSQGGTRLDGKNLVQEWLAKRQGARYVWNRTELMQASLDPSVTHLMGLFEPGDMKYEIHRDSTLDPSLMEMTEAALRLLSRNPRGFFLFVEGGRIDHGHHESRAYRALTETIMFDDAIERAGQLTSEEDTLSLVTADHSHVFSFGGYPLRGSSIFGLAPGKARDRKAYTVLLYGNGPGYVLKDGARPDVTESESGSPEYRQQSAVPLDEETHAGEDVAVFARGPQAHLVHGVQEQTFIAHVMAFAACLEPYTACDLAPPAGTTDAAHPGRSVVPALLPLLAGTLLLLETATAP

On to `Cc1ccc(NC(=S)NNC(=O)c2ccccc2OC(F)F)cc1`, for which the IC50 in [1], in [2] and in experiment [3] was > 100 µM (inactive) each time.

Take `COc1ccc(N=Nc2n(C)c3ccccc3[n+]2C)cc1`: the EC50 (as a rule, the concentration needed to bring the measured effect to its halfway point) in [4] was > 55.7 µM (not active); in experiment [5], 0.738 µM (active); in experiment [6], > 55.7 µM (not active); in [7] it was 0.631 µM (active).

Take `CCN(CC)c1ccc(C=C(c2nnnn2-c2ccccc2)c2nnnn2-c2ccccc2)cc1`: the concentration for half-maximal inhibition (IC50) (in general, the midpoint of a concentration-inhibition curve) against Insulin-degrading enzyme is on record as > 55.9 µM (not active); in [8], > 55.7 µM (not active).

In the case of `COc1ccc(-c2cc(C(=O)NCCc3ccccc3)c3ccccc3n2)c(OC)c1`, in experiment [9], the Ki (usually a dissociation constant, usually derived from enzyme kinetics or from competition with a known ligand) is 27.9 µM (inactive).

As to `CC1(C)CC2(CC(c3ccccc3F)c3ccc(O)c(O)c3O2)NC(=S)N1` (configuration not stated), the half-inhibitory concentration (IC50) is > 59.6 µM (not active) at Procathepsin L, 1.76 µM (active) on Aspartyl aminopeptidase, 39.9 µM (active) in experiment [10] and > 80 µM (inactive) in experiment [11].

Take `CC(C)[C@@H](CC(=O)N[C@@H]1CCNC[C@H]1C(=O)N[C@H](CC(=O)N[C@@H](CCC(=O)O)CC(=O)O)Cc1ccccc1)NC(=O)C[C@H](CO)NC(=O)[C@@H]1CNCC[C@H]1N`: the AC50 at Cytochrome P450 2C9 was 25.1 µM (inconclusive); at Cytochrome P450 2C19, 39.8 µM (inconclusive).

With `O=C(O)c1ccccc1NC(c1ccccc1)c1ccc(Cl)cc1` (configuration not stated), in the experiment on Staphylococcus aureus, the IC50 was 0.448 µM (active).
